Read-outs that look alike come from different tables or passages of the source.
Legend:
[1] = target: Hamster Sc237 PrP^Sc (Mesocricetus auratus, UniProt P04273); assay type: biochemical
[2] = target: PrP^C (Mesocricetus auratus, UniProt P04273)
[3] = target: T1, PrP^Sc (Mesocricetus auratus, UniProt P04273); assay type: biochemical, hamster; conditions: for IC50: read-out: IC50 of inhibition of PrP^Sc amplification; for effect on inhibition by CuCl2, added prior to CuCl2: 4 mM EDTA or 50 mM imidazole prior to 1 μM CuCl2; for effect on inhibition by CuCl2, added shortly after CuCl2: after 1 μM CuCl2; for effect of chelating compounds on PrP^Sc amplification: no metal added
[4] = target: PrP^C/PrP^Sc binding (Mesocricetus auratus, UniProt P04273)
[5] = target: T1, PrP^Sc; assay type: biochemical, hamster
[6] = target: Syrian hamster Sc237 PrP27-30 / immunopurified hamster PrP^C (Mesocricetus auratus, UniProt P04273); assay type: biochemical
[7] = target: T1, PrP^Sc; assay type: biochemical, hamster; remark: listed apart in the source
[8] = target: T1, PrP^Sc

T1 sequence (P04273 23-231 limits assumed): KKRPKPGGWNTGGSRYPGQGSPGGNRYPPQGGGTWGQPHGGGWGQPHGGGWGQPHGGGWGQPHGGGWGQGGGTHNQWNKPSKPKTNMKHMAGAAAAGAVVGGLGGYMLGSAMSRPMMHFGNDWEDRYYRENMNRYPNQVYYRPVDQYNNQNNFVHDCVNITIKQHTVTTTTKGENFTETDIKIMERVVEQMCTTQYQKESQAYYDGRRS
Hamster Sc237 PrP^Sc, sequence (P04273 23-231 limits assumed): as above
Syrian hamster Sc237 PrP27-30 / immunopurified hamster PrP^C, sequence (P04273 23-231 limits assumed): as above
PrP^C, sequence (P04273 23-231 limits assumed): as above
PrP^C/PrP^Sc binding, sequence (P04273 23-231 limits assumed): as above

Nc1ccn([C@@H]2O[C@H](CO)[C@@H](OP(=O)(O)O)[C@H]2O)c(=O)n1 [3′-cytidine monophosphate]
inhibition of PrP^Sc amplification by RNase end-product nucleotides ([1]; concentrations up to 1 mM): Neither of these nucleotides inhibited PrP^Sc amplification

[Cl][Cu][Cl] [CuCl2]
quantity or protease-resistance of input PrP^C or PrP^Sc molecules by themselves [2]: did not affect the quantity or protease-resistance
IC50 [3]: ~1 µM
PrP^C/PrP^Sc binding, ratio of PrP^C to PrP27-30 in the pellet [4]: 0.46

O=C(O)CN(CCN(CC(=O)O)CC(=O)O)CC(=O)O [EDTA]
effect on inhibition by CuCl2, added prior to CuCl2 [3]: prevented inhibition of PrP^Sc amplification
effect on inhibition by CuCl2, added shortly after CuCl2 [3]: failed to rescue PrP^Sc amplification
effect of chelating compounds on PrP^Sc amplification [3]: not influenced

[Cl][Mn][Cl] [MnCl2]
effect of divalent metal compound on PrP^Sc amplification [3]: neither MnCl2 nor CoCl2 affected PrP^Sc amplification
effect of pre-addition on CuCl2-mediated inhibition of PrP^Sc amplification [3]: did not influence the potency of CuCl2-mediated inhibition

[Cl-].[Cl-].[Zn+2] [ZnCl2]
IC50 [3]: ~10 µM

Nc1nc2c(ncn2[C@@H]2O[C@H](CO)[C@H]3OP(=O)(O)O[C@H]32)c(=O)[nH]1 [cyclic 2′,3′-GMP, 2′,3′-cyclic guanosine monophosphate]
inhibition of PrP^Sc amplification by RNase end-product nucleotides [1]: Neither of these nucleotides inhibited PrP^Sc amplification

c1c[nH]cn1 [imidazole]
effect on PrP^Sc amplification of preparation “X” ([5]; 5 mM): restored PrP^Sc amplification
effect on PrP^Sc amplification of preparation “X” ([5]; 50 mM): restored the ability of this preparation to serve as a substrate
effect on PrP^Sc amplification of preparation “X” ([5]; 250 mM): inhibited PrP^Sc amplification
effect on inhibition by CuCl2, added prior to CuCl2 [3]: prevented inhibition of PrP^Sc amplification
effect on inhibition by CuCl2, added shortly after CuCl2 [3]: failed to rescue PrP^Sc amplification

Cc1ccc2ccc3ccc(C)nc3c2n1 [neocuproine]
effect of chelating compounds on PrP^Sc amplification [3]: not influenced

DNase
effect of added enzyme on PrP^Sc amplification [1]: did not decrease PrP^Sc amplification

Sodium pentosan polysulfate [pentosan sulfate]
stimulation of PrP^Sc amplification [6]: stimulated PrP^Sc amplification only moderately

apyrase
effect of added enzyme on PrP^Sc amplification [1]: no effect

glycogen
stimulation of PrP^Sc amplification using purified substrate [6]: did not stimulate the formation of PrP^Sc

heparan sulfate
stimulation of PrP^Sc amplification in the presence of copper [6]: No apparent stimulation
stimulation of PrP^Sc amplification using purified substrate [6]: no effect

heparan sulfate proteoglycan
reconstitution of PrP^Sc amplification [7]: failed to reconstitute PrP^Sc amplification
stimulation of PrP^Sc amplification [6]: stimulated PrP^Sc amplification only moderately

heparinase III
effect of added enzyme on PrP^Sc amplification [1]: no effect

poly(C)
stimulation of PrP^Sc amplification using purified substrate [6]: failed to stimulate PrP^Sc amplification at all concentrations tested

poly(U)
stimulation of PrP^Sc amplification using purified substrate [6]: potently stimulated PrP^Sc amplification

polyadenylic acid [poly(A)]
reconstitution of PrP^Sc amplification [7]: failed to reconstitute PrP^Sc amplification
concentration at which PrP^Sc amplification was stimulated [6]: 1 µg/mL
threshold size required for stimulation of PrP^Sc amplification [6]: ~300 bases
propagation of PrP^Sc conformation in serial PMCA [8]: stimulated the propagation process

polyglutamic acid [polyglutamate]
reconstitution of PrP^Sc amplification ([7]; benzonase-pretreated normal brain homogenate): failed to reconstitute PrP^Sc amplification
level of stimulation compared with control stimulation by total hamster RNA ([6]; purified substrate): less than the level of control stimulation

Reference: patent US7407760B2 (priority 2003, dated 2008)
